Reference: ChEMBL document CHEMBL1158624, “Prenylcoumarin with Rev-export inhibitory activity from Cnidii Monnieris Fructus” (Bioorg Med Chem Lett, 2010)
Activity calls are given as the source filed them. No cut-off for these calls is given here.

Key:
Assay type in all cases: cell-based
Exportin-1 [1] = target: T1, Exportin-1 (Homo sapiens, UniProt O14980); assay: Inhibition of CRM1-mediated hemagglutininin-tagged HIV1 Rev protein nuclear export in human HeLa cells assessed as nucleus localization after 12 hrs by indirect fluorescent antibody technique
T1 sequence (O14980 whole entry): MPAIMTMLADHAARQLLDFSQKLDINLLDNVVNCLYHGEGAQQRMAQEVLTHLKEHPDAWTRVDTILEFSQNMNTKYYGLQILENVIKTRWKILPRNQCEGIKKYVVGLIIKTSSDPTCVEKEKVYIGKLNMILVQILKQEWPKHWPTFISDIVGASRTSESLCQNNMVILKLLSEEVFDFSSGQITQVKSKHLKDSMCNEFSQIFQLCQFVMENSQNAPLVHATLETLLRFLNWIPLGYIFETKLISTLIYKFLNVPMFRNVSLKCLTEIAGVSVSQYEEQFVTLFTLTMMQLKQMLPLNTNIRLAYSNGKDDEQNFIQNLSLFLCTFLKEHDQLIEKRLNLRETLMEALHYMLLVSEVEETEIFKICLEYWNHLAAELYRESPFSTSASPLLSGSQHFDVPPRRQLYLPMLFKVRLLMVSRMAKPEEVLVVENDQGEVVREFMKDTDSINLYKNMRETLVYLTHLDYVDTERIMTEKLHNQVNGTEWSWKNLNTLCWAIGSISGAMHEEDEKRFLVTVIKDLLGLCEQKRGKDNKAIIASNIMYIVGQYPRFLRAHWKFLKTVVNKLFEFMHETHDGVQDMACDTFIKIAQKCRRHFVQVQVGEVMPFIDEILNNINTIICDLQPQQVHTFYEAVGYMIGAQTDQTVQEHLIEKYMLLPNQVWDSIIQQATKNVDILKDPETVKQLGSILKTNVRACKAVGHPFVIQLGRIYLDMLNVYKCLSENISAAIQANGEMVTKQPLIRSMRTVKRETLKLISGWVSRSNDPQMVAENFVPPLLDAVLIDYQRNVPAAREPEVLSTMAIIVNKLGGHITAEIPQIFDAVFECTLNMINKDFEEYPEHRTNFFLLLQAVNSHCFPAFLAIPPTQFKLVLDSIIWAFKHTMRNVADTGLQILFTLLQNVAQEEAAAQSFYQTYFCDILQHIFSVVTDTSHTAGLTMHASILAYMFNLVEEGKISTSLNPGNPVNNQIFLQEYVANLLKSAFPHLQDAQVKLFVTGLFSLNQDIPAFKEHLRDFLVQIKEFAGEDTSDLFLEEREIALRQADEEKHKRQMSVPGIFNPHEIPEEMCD

Exportin-1 [2] = target: T1, Exportin-1; assay: Inhibition of CRM1-mediated hemagglutininin-tagged HIV1 Rev protein nuclear export in human HeLa cells assessed as nuclear localization at 5 uM after 12 hrs by indirect fluorescent antibody technique
Exportin-1 [3] = target: T1, Exportin-1; assay: Inhibition of CRM1-mediated hemagglutininin-tagged HIV1 Rev protein nuclear export in human HeLa cells assessed as nucleus localization at 25 uM after 12 hrs by indirect fluorescent antibody technique

| Compound | IC50 (Exportin-1 [1]) [µM] | inhibition (Exportin-1 [2]) | inhibition (Exportin-1 [3]) [%] |
| --- | --- | --- | --- |
| COc1ccc2ccc(=O)oc2c1CC=C(C)C [OSTHOLE] | 1.6 | Active | – |
| CC(C)=CCc1cccc2ccc(=O)oc12 | 6.4 | – | – |
| O=c1ccc2ccccc2o1 [COUMARIN] | > 25 | – | – |
| COc1ccc2c(c1CC=C(C)C)OC(=O)CC2 | – | – | 2.6 |
| COc1ccc2ccc(=O)oc2c1 [HERNIARIN] | > 25 | – | – |
